According to paper PMC10669572, “Norlobaridone Inhibits Quorum Sensing-Dependent Biofilm Formation and Some Virulence Factors in Pseudomonas aeruginosa by Disrupting Its Transcriptional Activator Protein LasR Dimerization” (Biomolecules, 2023):
Values after ≈ are worked out from the molar mass of the structure shown.

Key:
E. coli = test: microbe, parasite or virus in culture; design: antibacterial MIC determination; details: Escherichia coli
P. aeruginosa [1] = test: microbe, parasite or virus in culture; design: antibacterial MIC determination; details: Pseudomonas aeruginosa
Protocol: At this dose, NBD had no effect on the growth of P. aeruginosa, as shown by the fact that the growth curve of the bacteria in the presence of 5 μg/mL NBD was identical to the curve in the absence of the treatment (Figure S1).

P. aeruginosa [2] = test: microbe, parasite or virus in culture; design: crystal violet biofilm formation assay in 96-well plates, OD570; details: Pseudomonas aeruginosa, 24 h, read-out: % P. aeruginosa biofilm inhibition
Protocol: In 96-well polystyrene plates, the influence of NBD on biofilm growth was studied. The experiment was carried out in the manner reported by Stepanovi et al., with a few minor changes. P. aeruginosa cells were cultured in LB medium, vortexed, then diluted 1:100 in new LB media to a final concentration of 1.5 × 10^8 CFU/mL (0.5 McFarland) for biofilm development. Cells were then cultured for 24 h at 37 °C with or without NBD. Following that, non-adherent bacteria were washed away in sterile phosphate-buffered saline (PBS), and adherent bacteria were stained for 15 min with a 1% crystal violet solution. Water was used to clean the wells in order to remove any remaining stains. The absorbance of the crystal violet solution at OD570 was determined by spectrophotometric analysis. Wells with phosphate buffer-enriched media were utilized as negative controls. As a positive control, azithromycin (AZM) was used, which inhibits biofilm formation at sub-inhibitory concentrations. […] At this dose, NBD had no effect on the growth of P. aeruginosa, as shown by the fact that the growth curve of the bacteria in the presence of 5 μg/mL NBD was identical to the curve in the absence of the treatment (Figure S1).

[3] = molecular target: the molecule itself; test: AUC; sedimentation velocity, 141,900 x g, 20 °C, 20 mM Hepes pH 7.5, 100 mM NaCl; LasR 0.5 and 1 mg/mL produced with and in the presence of 100 μM OdDHL; c(S) and c(M) distributions in SEDFIT

Molecule | MIC (E. coli) | MIC (P. aeruginosa [1]) | inhibition at 5 µg/mL (P. aeruginosa [2]) | stoichiometry N [3]
CCCCCc1cc(O)cc2c1Oc1cc(O)cc(C(=O)CCCC)c1C(=O)O2 [NBD, norlobaridone] | 128 µg/mL (≈ 321 µM) | 128 µg/mL (≈ 321 µM) | 64.6% | 
O=C(O)c1cc(O)c(O)c(O)c1 [Gallic acid] | > 256 µg/mL | > 256 µg/mL | 21.4% | 
Oc1cccc(O)c1 [Resorcinol] | 128 µg/mL (≈ 1160 µM) | 128 µg/mL (≈ 1160 µM) | 27.7% | 
O=c1oc2c(O)c(O)cc3c(=O)oc4c(O)c(O)cc1c4c23 [Ellagic acid] | 128 µg/mL (≈ 424 µM) | 128 µg/mL (≈ 424 µM) | 22.8% | 
CC(=O)c1c(O)c(C)c(O)c(Cc2c(O)c3c(c(C(=O)/C=C/c4ccccc4)c2O)OC(C)(C)C=C3)c1O [Rottlerin] | > 256 µg/mL | > 256 µg/mL | 7.9% | 
Oc1cc(O)cc(O)c1 [Phloroglucinol] | 64 µg/mL (≈ 507 µM) | 64 µg/mL (≈ 507 µM) | 31.1% | 
O=C(O)c1ccc(O)cc1 [P-hydroxy benzoic acid] | > 256 µg/mL | 128 µg/mL (≈ 927 µM) | 12.9% | 
CCCCCc1ccccc1O [Pentylphenol] | > 256 µg/mL | 256 µg/mL (≈ 1560 µM) | 11.4% | 
LasR (Pseudomonas aeruginosa transcriptional activator protein, LuxR-type quorum sensing receptor) (natural protein, predicted molecular weight of the single chain 26.62 kD; Produced and kept with a small-molecule ligand: odDHL (dimer) or norlobaridone, NBD (monomer); also called LasR-odDHL; NBD-LasR; source: E. coli BL21 (pET23b, 1 mM IPTG, 18 °C overnight) in the presence of 100 μM OdDHL or 100 μM NBD; purified (heparin column, MonoQ, S200 size exclusion)) MALVDGFLELERSSGKLEWSAILQKMASDLGFSKILFGLLPKDSQDYENAFIVGNYPAAWREHYDRAGYARVDPTVSHCTQSVLPIFWEPSIYQTRKQHEFFEEASAAGLVYGLTMPLHGARGELGALSLSVEAENRAEANRFMESVLPTLWMLKDYALQSGAGLAFEHPVSKPVVLTSREKEVLQWCAIGKTSWEISVICNCSEANVNFHMGNIRRKFGVTSRRVAAIMAVNLGLITL |  |  |  | 2
